# Measured values: patent publication US20220289708A1, “SUBSTITUTED N-PHENYL URACILS, SALTS THEREOF AND THEIR USE AS HERBICIDAL AGENTS” (Bayer Aktiengesellschaft, priority 2019, published 2022)
# What was measured:
# Assay type in all cases: in vivo
# [1] = test system: Matricaria inodora; assay: Post-emergence herbicidal action; details: application rate 20 g/ha, rated visually after about 3 weeks vs untreated controls
# Description: (§1) a. Post-Emergence Herbicidal Action and Crop Plant Compatibility Seeds of monocotyledonous and dicotyledonous weeds and crop plants were placed in sandy loam in plastic or wood-fiber pots, covered with soil and cultivated in a greenhouse under controlled growth conditions. 2 to 3 weeks after sowing, the test plants were treated at the one-leaf stage. The compounds of the invention, formulated in the form of wettable powders (WP) or as emulsion concentrates (EC), were then sprayed onto the green parts of the plants as aqueous suspension or emulsion with addition of 0.5% additive at a water application rate of 600 l/ha (converted). After the test plants had been kept in the greenhouse under optimum growth conditions for about 3 weeks, the activity of the preparations was rated visually in comparison to untreated controls. For example, 100% activity=the plants have died, 0% activity=like control plants. Tables A1 to A15 below show the effects of selected compounds of the general formula (I) according to Tables I.1 to I.36 on various harmful plants and at an application rate corresponding to 20 g/ha and less, which were obtained by the experimental procedure mentioned above.
# [2] = test system: Echinochloa crus-galli; assay: Post-emergence herbicidal action; details: application rate 20 g/ha, rated visually after about 3 weeks vs untreated controls
# Description: as §1
# [3] = test system: Alopecurus myosuroides; assay: Post-emergence herbicidal action; details: application rate 20 g/ha, rated visually after about 3 weeks vs untreated controls
# Description: as §1
# [4] = test system: Digitaria sanguinalis; assay: Post-emergence herbicidal action; details: application rate 20 g/ha, rated visually after about 3 weeks vs untreated controls
# Description: as §1
# [5] = test system: Veronica persica; assay: Post-emergence herbicidal action; details: application rate 20 g/ha
# Description: as §1
# [6] = test system: Avena fatua; assay: Post-emergence herbicidal action; details: application rate 20 g/ha, rated visually after about 3 weeks vs untreated controls
# Description: as §1
# [7] = test system: Lolium rigidum; assay: Post-emergence herbicidal action; details: application rate 20 g/ha, rated visually after about 3 weeks vs untreated controls
# Description: as §1
# [8] = test system: Pharbitis purpurea; assay: Post-emergence herbicidal action; details: application rate 20 g/ha, rated visually after about 3 weeks vs untreated controls
# Description: as §1
# [9] = test system: Polygonum convolvulus; assay: Post-emergence herbicidal action; details: application rate 20 g/ha
# Description: as §1
# [10] = test system: Setaria viridis; assay: Post-emergence herbicidal action; details: application rate 20 g/ha, rated visually after about 3 weeks vs untreated controls
# Description: as §1
# [11] = test system: Abutilon theophrasti; assay: Post-emergence herbicidal action; details: application rate 20 g/ha, rated visually after about 3 weeks vs untreated controls
# Description: as §1
# [12] = test system: Amaranthus retroflexus; assay: Post-emergence herbicidal action; details: application rate 20 g/ha, rated visually after about 3 weeks vs untreated controls
# Description: as §1
# [13] = test system: Viola tricolor; assay: Post-emergence herbicidal action; details: application rate 20 g/ha
# Description: as §1
# [14] = test system: Oryza sativa; assay: Post-emergence crop plant compatibility
# Description: a. Post-Emergence Herbicidal Action and Crop Plant Compatibility
# as §1, with “Seeds” for “a. Post-Emergence Herbicidal Action and Crop Plant Compatibility Seeds”, “plants.” for “plants. Tables A1 to A15 below show the effects of selected compounds of the general formula (I) according to Tables I.1 to I.36 on various harmful plants and at an application rate corresponding to 20 g/ha and less, which were obtained by the experimental procedure mentioned above.”
# Tables A16 to A19 below show the crop plant compatibilities of selected compounds of the general formula (I) according to Tables I.1 to I.36 at an application rate corresponding to 5 g/ha or 20 g/ha, which were obtained in experiments according to the experimental procedure mentioned above. Here, the observed effects on selected crop plants are stated in comparison to the untreated controls (values in %).
Oryza sativa (efficacy in %) ([14]; application rate 5 g/ha) [%],Oryza sativa (efficacy in %) ([14]; application rate 20 g/ha) [%],Compound,Matricaria inodora (efficacy in %) [1] [%],Echinochloa crus-galli (efficacy in %) [2] [%],Alopecurus myosuroides (efficacy in %) [3] [%],Digitaria sanguinalis (efficacy in %) [4] [%],Veronica persica (efficacy in %) [5] [%],Avena fatua (efficacy in %) [6] [%],Lolium rigidum (efficacy in %) [7] [%],Pharbitis purpurea (efficacy in %) [8] [%],Polygonum convolvulus (efficacy in %) [9] [%],Setaria viridis (efficacy in %) [10] [%],Abutilon theophrasti (efficacy in %) [11] [%],Amaranthus retroflexus (efficacy in %) [12] [%],Viola tricolor (efficacy in %) [13] [%]
20,,Cn1c(C(F)(F)F)cc(=O)n(-c2cc(Oc3cccnc3OCC(=O)OC3COC3)c(Br)cc2F)c1=O [I.16-115],100,100,100,100,100,80,100,100,100,100,100,100,100
20,,Cn1c(C(F)(F)F)cc(=O)n(-c2cc(Sc3cccnc3OCC(=O)OC3COC3)c(Cl)cc2F)c1=O [I.1-115],100,100,100,100,100,80,80,100,,100,100,100,100
0,,Cn1c(C(F)(F)F)cc(=O)n(-c2cc(Sc3cccnc3OCC(=O)OCc3ccccn3)c(Cl)cc2F)c1=O [I.1-286],100,100,100,,100,80,80,100,,,100,100,100
,20,"COCCOCCOC(=O)COc1ncc(F)cc1Sc1cc(-n2c(=O)cc(C(F)(F)F)n(C)c2=O)c(F)cc1Cl [I.31-23, 2-(2-Methoxyethoxy)ethyl {[3-({5-[3-methyl-2,6-dioxo-4-(trifluoromethyl)-3,6-dihydropyrimidin-1(2H)-yl]-2-chloro-4-fluorophenyl}sulfanyl)-5-fluoropyridin-2-yl]oxy}acetate]",100,100,90,100,100,,,100,,100,100,100,100
20,,Cn1c(C(F)(F)F)cc(=O)n(-c2cc(Sc3cccnc3OCC(=O)OCC#N)c(Cl)cc2F)c1=O [I.1-176],100,100,100,100,100,90,80,100,,100,100,100,100
,,COCCOC(=O)COc1ncccc1Oc1cc(-n2c(=O)cc(C(F)(F)F)n(C)c2=O)c(F)cc1Br [I.16-1],100,100,100,100,100,90,90,100,100,100,100,100,100
,,Cn1c(C(F)(F)F)cc(=O)n(-c2cc(Oc3cc(F)cnc3OCC(=O)OCc3ccccn3)c(Cl)cc2F)c1=O [I.36-286],90,100,100,100,100,80,80,100,100,100,100,100,100
,20,COCCOC(=O)COc1ncc(F)cc1Sc1cc(-n2c(=O)cc(C(F)(F)F)n(C)c2=O)c(F)cc1Cl [I.31-1],100,100,90,100,100,,80,100,,100,100,100,100
,,CCOCCOC(=O)COc1ncccc1Oc1cc(-n2c(=O)cc(C(F)(F)F)n(C)c2=O)c(F)cc1Br [I.16-2],100,100,100,100,100,100,100,100,100,100,100,100,100
,,CCOCCOC(=O)COc1ncccc1Oc1cc(-n2c(=O)cc(C(F)(F)F)n(C)c2=O)c(F)cc1Cl [I.15-2],100,100,100,100,100,90,90,100,100,100,100,100,100
,,Cn1c(C(F)(F)F)cc(=O)n(-c2cc(Oc3cccnc3OCC(=O)OCC#N)c(Br)cc2F)c1=O [I.16-176],100,100,100,100,100,90,80,100,90,100,100,100,100
,,CCS(=O)(=O)NCCOC(=O)COc1ncccc1Oc1cc(-n2c(=O)cc(C(F)(F)F)n(C)c2=O)c(F)cc1Cl [I.15-421],100,100,100,100,100,100,100,100,100,100,100,100,100
